One molecule from patent publication US8535740B2, “Compositions from Nigella sativa” (priority 2002, dated 2013) can be followed below.

Test [1] is described as follows: DPPH free radical scavenging (antioxidant) activity. Format: biochemical. The conditions noted are these: computed on basis of TQ content. As to the method:
Methodology—Antioxidant activity was determined utilizing 2,2-diphenyl-1-picrylhydrazyl (DPPH), which is a stable radical. […] The color turns from purple to yellow as the molar absorption of the DPPH radical at 550 nm is reduced when the odd electron of DPPH radical becomes paired with hydrogen from a free radical scavenging antioxidant to form the reduced DPPH-H. The test samples were dissolved in methanol containing 1% dimethyl sulfoxide and added to microtiter wells in 100 μL aliquots to 100 μL of a 100 μM DPPH solution in methanol. Readings were taken at 10, 30 and 60 minutes following the addition of the test material. Percent inhibition of the DPPH radical by the test material was computed relative to the inhibition of the DPPH radical by the vitamin E analog trolox and tabulated as μmol trolox/g test material.

In test [2] the test system is prostate specific antigen (PSA) secretion from LNCaP prostate cells. The test can be described thus: Prostate specific antigen secretion from LNCaP prostate cells. Format: cell-based, human. The conditions noted are these: for Effect on PSA Secretion over 24 Hours: LNCaP cells; for PSA secretion: 24 hours. From the text:
Chemicals—PSA was quantified from the cell culture supernatant fluid using the Quantikine Human KLK3/PSA Immunoassay kit (R&D Systems, Inc., Minnaepolis, Minn.). All other materials used in this example were purchased from Sigma (St. Louis, Mo.) or otherwise noted and were of the highest purity commercially available. The N. sativa samples used in this study were those commercial-scale extracts described in Example 1. Cell culture and treatment—The LNCaP prostate cell line, which produces PSA, was used to study the effects of commercial-scale N. sativa scale extracts of Example 1 and pure TQ on the secretion of PSA. LNCaP cells were purchased from the American Type Culture Collection (ATCC, Manassas, Va.) and sub-cultured according to instructions supplied by ATCC. Prior to experiments, cells were cultured in DMEM containing 10% FBS-HI added 50 units penicillin/ml and 50 μg streptomycin/ml, and maintained in log phase prior to experimental setup. Cells were grown in a 5% CO2 humidified incubator at 37° C. Components of medium included: (1) 10% FBS/DMEM (Fetal Bovine Serum/Dulbecco's Modified Eagle's Medium) containing 4.5 g glucose/L; (2) 50 U/ml penicillin; and (3) 50 μg/ml streptomycin. Growth medium was made by adding 50 ml of heat inactivated FBS and 5 ml of penicillin/streptomycin to 500 ml DMEM. This medium was stored at 4° C. Before use, the medium was warmed to 37° C. in a water bath. LNCaP cells were seeded at an initial density of 6×10^4 cells/cm^2 in 96-well plates. For two days, the cells were allowed grow to reach confluence. On day three post seeding, cells were treated with TQ, NS8, NS9, NS10, Spent#1, and NSSpent#2 at the concentrations listed in FIGS. 5, 6 and 7. Twenty-four hours later, the supernatant media were sampled and assayed for PSA.

Test [3] deals with adiponectin secretion in 3T3-L1 adipocytes. As to the kind of experiment: Adiponectin secretion in t10-CLA-stimulated 3T3-L1 adipocytes. Format: cell-based, murine. As to the method: Treatment—Test materials were added four hours prior to the addition of t10-CLA at a concentration of 50 μM. Following overnight incubation, the supernatant media were sampled for determination of IL-6 and adiponectin. Adiponectin assay—The adiponectin secreted into the medium was quantified using the Mouse Adiponectin Quantikine® Immunoassay kit with no modifications (R&D Systems, Minneapolis, Minn.). […] Statistical Calculations and Interpretation—Test materials and were assayed in duplicate, while solvent controls were replicated eight times. IL-6 and adiponectin secretion were represented relative to the IL-6 and adiponectin secretion of the t10-CLA only controls as the IL-6 and adiponectin index and differences among the means were analyzed by the student's t-test assuming a five percent probability of a type I error (Excel; Microsoft, Redmond, Wash.).

The subject of test [4] is IL-6 secretion in 3T3-L1 adipocytes. The test can be described thus: IL-6 secretion in t10-CLA-stimulated 3T3-L1 adipocytes. Format: cell-based, murine. As for the experimental part:
Treatment—Test materials were added four hours prior to the addition of t10-CLA at a concentration of 50 μM. Following overnight incubation, the supernatant media were sampled for determination of IL-6 and adiponectin. Interleukin-6 assay—The IL-6 secreted into the medium in response to […] stimulation was quantified using the Quantikine® Mouse IL-6 Immunoassay kit with no modifications (R&D Systems, Minneapolis, Minn.). […] All supernatant media samples were diluted 1:30 for quantification. Statistical Calculations and Interpretation—Test materials and were assayed in duplicate, while solvent controls were replicated eight times. IL-6 and adiponectin secretion were represented relative to the IL-6 and adiponectin secretion of the t10-CLA only controls as the IL-6 and adiponectin index and differences among the means were analyzed by the student's t-test assuming a five percent probability of a type I error (Excel; Microsoft, Redmond, Wash.).

Test [5] concerns C2C12 myocytes. The test can be described thus: Lipolysis (glycerol / free fatty acid release) in C2C12 myocytes. Format: cell-based, murine. The conditions noted are these: test materials 5 or 2.5 μg/mL (FIG. 10). As to the method:
(§1) Cell culture and treatment-Culture and treatment of 3T3-L1 adipocytes and C2C12 myocytes was as described in Example 5. Concentrations of the forskolin positive control and test materials are listed in FIG. 9 for adipocytes and FIG. 10 for myocytes. Glycerol assay-Free fatty acid release from 3T3-L1 adipocytes or C2C12 myocytes was quantified by measuring glycerol secretion into the medium. Glycerol was measured spectrophotometrically using the Free Glycerol Determination Kit ([…], Sigma) and an EL 312e Microplate BIO-KINETICS spectrophotometer (BioTek, Winooski, Vt.). Data analysis-Glycerol release from adipocytes and myocytes was expressed, respectively, as the percent increase in free fatty acid secretion (FIG. 9) and relative glycerol content (glycerol index FIG. 10) ±95% confidence intervals of eight observations for one of three representative experiments.

Test [6] concerns 3T3-L1 adipocytes. The test can be described thus: Lipolysis (glycerol / free fatty acid release) in 3T3-L1 adipocytes. Format: cell-based, murine. The conditions noted are these: forskolin 82 μg/mL, test materials 5 μg/mL (FIG. 9). As for the experimental part: as §1
[7] abbreviates: relative to t10-CLA only control (100), 50 μM t10-CLA, overnight, each material at its tabulated concentration.

Each structure is given as a SMILES string. Marks after values point to notes of the source that are not given here.

With `CC1=CC(=O)C(C(C)C)=CC1=O` [Thymoquinone (Sigma), thymoquinone], the “DPPH Reducing Activity” value in test [1] came to 45.2 μmol Trolox/g TQ. The “Effect on PSA Secretion over 24 Hours” value is “Decreased PSA at 5 and 10 μg/mL, dramatic increase” in test [2]; “decreased PSA only at the two lowest doses tested” in test [2] (listed as TQ). Besides, the PSA secretion in test [2] (highest dose (100 μg/mL per Table 4)) is 207%; in test [2] (second highest dose (50 μg/mL per Table 4)) it was 166%. Besides, the “effect on t10-CLA-stimulated decrease of adiponectin secretion” value in test [3] (concentrations of Table 8) is “attenuated t10-CLA-stimulated decrease of adiponectin secretion”. Besides, in test [3] (setting [7]), the “Adiponectin Index” value is 128*. For the same molecule, in test [4] (concentrations of Table 8), the “effect on IL-6 secretion in t10-CLA-stimulated adipocytes” value is reported as “inhibited IL-6 secretion”. For the same molecule, in test [4] (setting [7]), the “IL-6 Index” value was 75*. The “free fatty acid release in myocytes” value in test [5] is reported as “induced free fatty acid release”. The “free fatty acid release in adipocytes” value in test [6] is “induced free fatty acid release”.
